Results as given in ChEMBL document CHEMBL4706583, “2-Anilinoquinoline based arylamides as broad spectrum anticancer agents with B-RAF/C-RAF kinase inhibitory effects: Design, synthesis, in vitro cell-based and oncogenic kinase assessments” (Eur J Med Chem, 2020).

Tested on: Panel NCI-60 (60 carcinoma cell lines)
Assay: Growth inhibition of human Panel NCI-60 (60 carcinoma cell lines) cells at 10 uM measured after 48 hrs by SRB assay relative to control
Assay type: functional
Conditions: read-out: GI

| Compound | inhibition of growth at 10 µM |
| --- | --- |
| COc1cccc2nc(Nc3cccc(NC(=O)c4ccc5ncccc5c4)c3)ccc12 | 28.6% |
| COc1cccc2nc(Nc3cccc(NC(=O)c4ccc5c(c4)OCCO5)c3)ccc12 | 17.8% |
| COc1cccc2nc(Nc3ccc(NC(=O)c4ccc(Cl)c(C(F)(F)F)c4)cc3)ccc12 | 6.32% |
| COc1cccc2nc(Nc3cccc(NC(=O)c4cccc(Cl)n4)c3)ccc12 | 4.88% |
| COc1cccc2nc(Nc3ccc(NC(=O)c4ccc5c(c4)OCCO5)cc3)ccc12 | -1.17% |
| COc1cccc2nc(Nc3cccc(NC(=O)c4ccc(Cl)c(C(F)(F)F)c4)c3)ccc12 | 12.9% |

Tested on: CCRF-CEM
Assay: Growth inhibition of human CCRF-CEM cells at 10 uM measured after 48 hrs by SRB assay relative to control
Assay type: functional
Conditions: read-out: GI

| Compound | inhibition of growth at 10 µM |
| --- | --- |
| COc1cccc2nc(Nc3cccc(NC(=O)c4ccc5ncccc5c4)c3)ccc12 | 36.9% |
| COc1cccc2nc(Nc3cccc(NC(=O)c4ccc5c(c4)OCCO5)c3)ccc12 | 33.4% |
| COc1cccc2nc(Nc3ccc(NC(=O)c4ccc(Cl)c(C(F)(F)F)c4)cc3)ccc12 | < 20% |
| COc1cccc2nc(Nc3cccc(NC(=O)c4cccc(Cl)n4)c3)ccc12 | < 20% |
| COc1cccc2nc(Nc3ccc(NC(=O)c4ccc5c(c4)OCCO5)cc3)ccc12 | < 20% |
| COc1cccc2nc(Nc3cccc(NC(=O)c4ccc(Cl)c(C(F)(F)F)c4)c3)ccc12 | 32.9% |

Tested on: K562
Assay: Growth inhibition of human K562 cells at 10 uM measured after 48 hrs by SRB assay relative to control
Assay type: functional
Conditions: read-out: GI

| Compound | inhibition of growth at 10 µM |
| --- | --- |
| COc1cccc2nc(Nc3cccc(NC(=O)c4ccc5ncccc5c4)c3)ccc12 | 61.1% |
| COc1cccc2nc(Nc3cccc(NC(=O)c4ccc5c(c4)OCCO5)c3)ccc12 | 67.8% |
| COc1cccc2nc(Nc3ccc(NC(=O)c4ccc(Cl)c(C(F)(F)F)c4)cc3)ccc12 | 47.5% |
| COc1cccc2nc(Nc3cccc(NC(=O)c4cccc(Cl)n4)c3)ccc12 | < 20% |
| COc1cccc2nc(Nc3ccc(NC(=O)c4ccc5c(c4)OCCO5)cc3)ccc12 | < 20% |
| COc1cccc2nc(Nc3cccc(NC(=O)c4ccc(Cl)c(C(F)(F)F)c4)c3)ccc12 | 56.8% |

Tested on: MOLT-4
Assay: Growth inhibition of human MOLT-4 cells at 10 uM measured after 48 hrs by SRB assay relative to control
Assay type: functional
Conditions: read-out: GI

| Compound | inhibition of growth at 10 µM |
| --- | --- |
| COc1cccc2nc(Nc3cccc(NC(=O)c4ccc5ncccc5c4)c3)ccc12 | 64.2% |
| COc1cccc2nc(Nc3cccc(NC(=O)c4ccc5c(c4)OCCO5)c3)ccc12 | 75.2% |
| COc1cccc2nc(Nc3ccc(NC(=O)c4ccc(Cl)c(C(F)(F)F)c4)cc3)ccc12 | 27.6% |
| COc1cccc2nc(Nc3cccc(NC(=O)c4cccc(Cl)n4)c3)ccc12 | 23.3% |
| COc1cccc2nc(Nc3ccc(NC(=O)c4ccc5c(c4)OCCO5)cc3)ccc12 | < 20% |
| COc1cccc2nc(Nc3cccc(NC(=O)c4ccc(Cl)c(C(F)(F)F)c4)c3)ccc12 | 54.8% |

Tested on: RPMI-8226
Assay: Growth inhibition of human RPMI-8226 cells at 10 uM measured after 48 hrs by SRB assay relative to control
Assay type: functional
Conditions: read-out: GI

| Compound | inhibition of growth at 10 µM |
| --- | --- |
| COc1cccc2nc(Nc3cccc(NC(=O)c4ccc5ncccc5c4)c3)ccc12 | 94.6% |
| COc1cccc2nc(Nc3cccc(NC(=O)c4ccc5c(c4)OCCO5)c3)ccc12 | 39.7% |
| COc1cccc2nc(Nc3ccc(NC(=O)c4ccc(Cl)c(C(F)(F)F)c4)cc3)ccc12 | < 20% |
| COc1cccc2nc(Nc3cccc(NC(=O)c4cccc(Cl)n4)c3)ccc12 | < 20% |
| COc1cccc2nc(Nc3ccc(NC(=O)c4ccc5c(c4)OCCO5)cc3)ccc12 | < 20% |
| COc1cccc2nc(Nc3cccc(NC(=O)c4ccc(Cl)c(C(F)(F)F)c4)c3)ccc12 | 31.8% |

Tested on: SR
Assay: Growth inhibition of human SR cells at 10 uM measured after 48 hrs by SRB assay relative to control
Assay type: functional
Conditions: read-out: GI

| Compound | inhibition of growth at 10 µM |
| --- | --- |
| COc1cccc2nc(Nc3cccc(NC(=O)c4ccc5ncccc5c4)c3)ccc12 | 55.9% |
| COc1cccc2nc(Nc3cccc(NC(=O)c4ccc5c(c4)OCCO5)c3)ccc12 | 56.7% |
| COc1cccc2nc(Nc3ccc(NC(=O)c4ccc(Cl)c(C(F)(F)F)c4)cc3)ccc12 | < 20% |
| COc1cccc2nc(Nc3cccc(NC(=O)c4cccc(Cl)n4)c3)ccc12 | < 20% |
| COc1cccc2nc(Nc3ccc(NC(=O)c4ccc5c(c4)OCCO5)cc3)ccc12 | < 20% |
| COc1cccc2nc(Nc3cccc(NC(=O)c4ccc(Cl)c(C(F)(F)F)c4)c3)ccc12 | 48% |

Tested on: A549
Assay: Growth inhibition of human A549 cells at 10 uM measured after 48 hrs by SRB assay relative to control
Assay type: functional
Conditions: read-out: GI

| Compound | inhibition of growth at 10 µM |
| --- | --- |
| COc1cccc2nc(Nc3cccc(NC(=O)c4ccc5ncccc5c4)c3)ccc12 | 20.9% |
| COc1cccc2nc(Nc3cccc(NC(=O)c4ccc5c(c4)OCCO5)c3)ccc12 | < 20% |
| COc1cccc2nc(Nc3ccc(NC(=O)c4ccc(Cl)c(C(F)(F)F)c4)cc3)ccc12 | < 20% |
| COc1cccc2nc(Nc3cccc(NC(=O)c4cccc(Cl)n4)c3)ccc12 | < 20% |
| COc1cccc2nc(Nc3ccc(NC(=O)c4ccc5c(c4)OCCO5)cc3)ccc12 | < 20% |
| COc1cccc2nc(Nc3cccc(NC(=O)c4ccc(Cl)c(C(F)(F)F)c4)c3)ccc12 | < 20% |

Tested on: HOP-92
Assay: Growth inhibition of human HOP-92 cells at 10 uM measured after 48 hrs by SRB assay relative to control
Assay type: functional
Conditions: read-out: GI

| Compound | inhibition of growth at 10 µM |
| --- | --- |
| COc1cccc2nc(Nc3cccc(NC(=O)c4ccc5ncccc5c4)c3)ccc12 | 48.5% |
| COc1cccc2nc(Nc3cccc(NC(=O)c4ccc5c(c4)OCCO5)c3)ccc12 | < 20% |
| COc1cccc2nc(Nc3ccc(NC(=O)c4ccc(Cl)c(C(F)(F)F)c4)cc3)ccc12 | 32% |
| COc1cccc2nc(Nc3cccc(NC(=O)c4cccc(Cl)n4)c3)ccc12 | < 20% |
| COc1cccc2nc(Nc3ccc(NC(=O)c4ccc5c(c4)OCCO5)cc3)ccc12 | < 20% |
| COc1cccc2nc(Nc3cccc(NC(=O)c4ccc(Cl)c(C(F)(F)F)c4)c3)ccc12 | 21.5% |

Tested on: NCI-H522
Assay: Growth inhibition of human NCI-H522 cells at 10 uM measured after 48 hrs by SRB assay relative to control
Assay type: functional
Conditions: read-out: GI

| Compound | inhibition of growth at 10 µM |
| --- | --- |
| COc1cccc2nc(Nc3cccc(NC(=O)c4ccc5ncccc5c4)c3)ccc12 | < 20% |
| COc1cccc2nc(Nc3cccc(NC(=O)c4ccc5c(c4)OCCO5)c3)ccc12 | < 20% |
| COc1cccc2nc(Nc3ccc(NC(=O)c4ccc(Cl)c(C(F)(F)F)c4)cc3)ccc12 | < 20% |
| COc1cccc2nc(Nc3cccc(NC(=O)c4cccc(Cl)n4)c3)ccc12 | < 20% |
| COc1cccc2nc(Nc3ccc(NC(=O)c4ccc5c(c4)OCCO5)cc3)ccc12 | < 20% |
| COc1cccc2nc(Nc3cccc(NC(=O)c4ccc(Cl)c(C(F)(F)F)c4)c3)ccc12 | 27.4% |

Tested on: HCT-116
Assay: Growth inhibition of human HCT-116 cells at 10 uM measured after 48 hrs by SRB assay relative to control
Assay type: functional
Conditions: read-out: GI

| Compound | inhibition of growth at 10 µM |
| --- | --- |
| COc1cccc2nc(Nc3cccc(NC(=O)c4ccc5ncccc5c4)c3)ccc12 | 53.3% |
| COc1cccc2nc(Nc3cccc(NC(=O)c4ccc5c(c4)OCCO5)c3)ccc12 | 32.5% |
| COc1cccc2nc(Nc3ccc(NC(=O)c4ccc(Cl)c(C(F)(F)F)c4)cc3)ccc12 | < 20% |
| COc1cccc2nc(Nc3cccc(NC(=O)c4cccc(Cl)n4)c3)ccc12 | < 20% |
| COc1cccc2nc(Nc3ccc(NC(=O)c4ccc5c(c4)OCCO5)cc3)ccc12 | < 20% |
| COc1cccc2nc(Nc3cccc(NC(=O)c4ccc(Cl)c(C(F)(F)F)c4)c3)ccc12 | < 20% |

Tested on: HT-29
Assay: Growth inhibition of human HT-29 cells at 10 uM measured after 48 hrs by SRB assay relative to control
Assay type: functional
Conditions: read-out: GI

| Compound | inhibition of growth at 10 µM |
| --- | --- |
| COc1cccc2nc(Nc3cccc(NC(=O)c4ccc5ncccc5c4)c3)ccc12 | 42.4% |
| COc1cccc2nc(Nc3cccc(NC(=O)c4ccc5c(c4)OCCO5)c3)ccc12 | < 20% |
| COc1cccc2nc(Nc3ccc(NC(=O)c4ccc(Cl)c(C(F)(F)F)c4)cc3)ccc12 | 21.8% |
| COc1cccc2nc(Nc3cccc(NC(=O)c4cccc(Cl)n4)c3)ccc12 | < 20% |
| COc1cccc2nc(Nc3ccc(NC(=O)c4ccc5c(c4)OCCO5)cc3)ccc12 | < 20% |
| COc1cccc2nc(Nc3cccc(NC(=O)c4ccc(Cl)c(C(F)(F)F)c4)c3)ccc12 | < 20% |

Tested on: 786-0
Assay: Growth inhibition of human 786-0 cells at 10 uM measured after 48 hrs by SRB assay relative to control
Assay type: functional
Conditions: read-out: GI

| Compound | inhibition of growth at 10 µM |
| --- | --- |
| COc1cccc2nc(Nc3cccc(NC(=O)c4ccc5ncccc5c4)c3)ccc12 | 51.4% |
| COc1cccc2nc(Nc3cccc(NC(=O)c4ccc5c(c4)OCCO5)c3)ccc12 | 48.3% |
| COc1cccc2nc(Nc3ccc(NC(=O)c4ccc(Cl)c(C(F)(F)F)c4)cc3)ccc12 | < 20% |
| COc1cccc2nc(Nc3cccc(NC(=O)c4cccc(Cl)n4)c3)ccc12 | < 20% |
| COc1cccc2nc(Nc3ccc(NC(=O)c4ccc5c(c4)OCCO5)cc3)ccc12 | < 20% |
| COc1cccc2nc(Nc3cccc(NC(=O)c4ccc(Cl)c(C(F)(F)F)c4)c3)ccc12 | < 20% |

Tested on: A498
Assay: Growth inhibition of human A498 cells at 10 uM measured after 48 hrs by SRB assay relative to control
Assay type: functional
Conditions: read-out: GI

| Compound | inhibition of growth at 10 µM |
| --- | --- |
| COc1cccc2nc(Nc3cccc(NC(=O)c4ccc5ncccc5c4)c3)ccc12 | < 20% |
| COc1cccc2nc(Nc3cccc(NC(=O)c4ccc5c(c4)OCCO5)c3)ccc12 | 26.2% |
| COc1cccc2nc(Nc3ccc(NC(=O)c4ccc(Cl)c(C(F)(F)F)c4)cc3)ccc12 | 22.6% |
| COc1cccc2nc(Nc3cccc(NC(=O)c4cccc(Cl)n4)c3)ccc12 | 32.4% |
| COc1cccc2nc(Nc3ccc(NC(=O)c4ccc5c(c4)OCCO5)cc3)ccc12 | < 20% |
| COc1cccc2nc(Nc3cccc(NC(=O)c4ccc(Cl)c(C(F)(F)F)c4)c3)ccc12 | 27.5% |

Tested on: UO-31
Assay: Growth inhibition of human UO-31 cells at 10 uM measured after 48 hrs by SRB assay relative to control
Assay type: functional
Conditions: read-out: GI

| Compound | inhibition of growth at 10 µM |
| --- | --- |
| COc1cccc2nc(Nc3cccc(NC(=O)c4ccc5ncccc5c4)c3)ccc12 | 22.9% |
| COc1cccc2nc(Nc3cccc(NC(=O)c4ccc5c(c4)OCCO5)c3)ccc12 | < 20% |
| COc1cccc2nc(Nc3ccc(NC(=O)c4ccc(Cl)c(C(F)(F)F)c4)cc3)ccc12 | < 20% |
| COc1cccc2nc(Nc3cccc(NC(=O)c4cccc(Cl)n4)c3)ccc12 | < 20% |
| COc1cccc2nc(Nc3ccc(NC(=O)c4ccc5c(c4)OCCO5)cc3)ccc12 | < 20% |
| COc1cccc2nc(Nc3cccc(NC(=O)c4ccc(Cl)c(C(F)(F)F)c4)c3)ccc12 | 37.6% |

Tested on: PC-3
Assay: Growth inhibition of human PC-3 cells at 10 uM measured after 48 hrs by SRB assay relative to control
Assay type: functional
Conditions: read-out: GI

| Compound | inhibition of growth at 10 µM |
| --- | --- |
| COc1cccc2nc(Nc3cccc(NC(=O)c4ccc5ncccc5c4)c3)ccc12 | 56.2% |
| COc1cccc2nc(Nc3cccc(NC(=O)c4ccc5c(c4)OCCO5)c3)ccc12 | 32.1% |
| COc1cccc2nc(Nc3ccc(NC(=O)c4ccc(Cl)c(C(F)(F)F)c4)cc3)ccc12 | < 20% |
| COc1cccc2nc(Nc3cccc(NC(=O)c4cccc(Cl)n4)c3)ccc12 | 20.6% |
| COc1cccc2nc(Nc3ccc(NC(=O)c4ccc5c(c4)OCCO5)cc3)ccc12 | < 20% |
| COc1cccc2nc(Nc3cccc(NC(=O)c4ccc(Cl)c(C(F)(F)F)c4)c3)ccc12 | 50.3% |

Tested on: T47D
Assay: Growth inhibition of human T47D cells at 10 uM measured after 48 hrs by SRB assay relative to control
Assay type: functional
Conditions: read-out: GI

| Compound | inhibition of growth at 10 µM |
| --- | --- |
| COc1cccc2nc(Nc3cccc(NC(=O)c4ccc5ncccc5c4)c3)ccc12 | 58% |
| COc1cccc2nc(Nc3cccc(NC(=O)c4ccc5c(c4)OCCO5)c3)ccc12 | 46% |
| COc1cccc2nc(Nc3ccc(NC(=O)c4ccc(Cl)c(C(F)(F)F)c4)cc3)ccc12 | < 20% |
| COc1cccc2nc(Nc3cccc(NC(=O)c4cccc(Cl)n4)c3)ccc12 | < 20% |
| COc1cccc2nc(Nc3ccc(NC(=O)c4ccc5c(c4)OCCO5)cc3)ccc12 | < 20% |
| COc1cccc2nc(Nc3cccc(NC(=O)c4ccc(Cl)c(C(F)(F)F)c4)c3)ccc12 | 21.3% |
